Data as given in ChEMBL document CHEMBL1201862, “PubChem BioAssay data set” (2004).
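Growth conditions: 96-well plates. Treatment: test compound, 48 hours, 5 concentrations. Analysis: linear interpolation between bracketing concentrations; unreached endpoints set to highest concentration. GI50 = concentration required for 50% inhibition of growth.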 The source made the active and inactive calls. Rule as the data show it: active = GI50 up to about 1.1 µM and inactive = higher.

How the values were obtained:
Test in all cases: inhibition of tumour cell growth, NCI panel, 48 h
[1] = test system: 786-0
[2] = test system: BT-549
[3] = test system: COLO 205
[4] = test system: HCC 2998
[5] = test system: HCT-116
[6] = test system: Hs-578T
[7] = test system: IGROV-1
[8] = test system: K562
[9] = test system: MDA-MB-231
[10] = test system: MOLT-4
[11] = test system: NCI-H226
[12] = test system: NCI-H23
[13] = test system: NCI-H522
[14] = test system: RPMI-8226
[15] = test system: SF-539
[16] = test system: SK-OV-3
[17] = test system: SNB-19
[18] = test system: UACC-62
[19] = test system: SR

SMILES | GI50 [1] | GI50 [2] | GI50 [3] | GI50 [4] | GI50 [5] | GI50 [6] | GI50 [7] | GI50 [8] | GI50 [9] | GI50 [10] | GI50 [11] | GI50 [12] | GI50 [13] | GI50 [14] | GI50 [15] | GI50 [16] | GI50 [17] | GI50 [18] | GI50 [19]
CC1(C)CC(=O)C2(CC(CSc3ccccc3)C(CS(=O)(=O)c3ccccc3)C2)C(=O)C1 (stereo not given) | > 100 µM (inactive) | > 100 µM (inactive) | > 100 µM (inactive) | > 100 µM (inactive) | > 100 µM (inactive) | > 100 µM (inactive) | > 100 µM (inactive) | > 100 µM (inactive) | > 100 µM (inactive) | > 100 µM (inactive) | > 100 µM (inactive) | > 100 µM (inactive) | > 100 µM (inactive) | 66.4 µM (inactive) | > 100 µM (inactive) | > 100 µM (inactive) | > 100 µM (inactive) | > 100 µM (inactive) | –
Cn1c(=O)c2c(nc(C(=N)SCC(=O)O)n2C)n(C)c1=O | 45.7 µM (inactive) | 41.1 µM (inactive) | 31.3 µM (inactive) | – | 26.5 µM (inactive) | 97.7 µM (inactive) | 47 µM (inactive) | 27 µM (inactive) | > 100 µM (inactive) | 22.2 µM (inactive) | 58.9 µM (inactive) | 27.7 µM (inactive) | 41.9 µM (inactive) | 42.2 µM (inactive) | 32.8 µM (inactive) | 61.8 µM (inactive) | 52.7 µM (inactive) | 34.4 µM (inactive) | 22.7 µM (inactive)
O=C(O)CCCc1ccc2ccc3ccccc3c2c1 | > 100 µM (inactive) | 69 µM (inactive) | 40.8 µM (inactive) | – | 89.1 µM (inactive) | 38.8 µM (inactive) | > 100 µM (inactive) | 42.5 µM (inactive) | 73.1 µM (inactive) | 65.5 µM (inactive) | 78.2 µM (inactive) | > 100 µM (inactive) | 39.6 µM (inactive) | 38.8 µM (inactive) | – | – | > 100 µM (inactive) | 38.3 µM (inactive) | 51.9 µM (inactive)
CC1(C)OC[C@@H](O)[C@H](Br)CO1 | > 100 µM (inactive) | > 100 µM (inactive) | > 100 µM (inactive) | > 100 µM (inactive) | > 100 µM (inactive) | 68.2 µM (inactive) | – | 79.8 µM (inactive) | > 100 µM (inactive) | 65.8 µM (inactive) | > 100 µM (inactive) | > 100 µM (inactive) | – | 67.3 µM (inactive) | > 100 µM (inactive) | > 100 µM (inactive) | > 100 µM (inactive) | > 100 µM (inactive) | > 100 µM (inactive)
Cc1[nH]c2c(c1Cc1ccccc1)C1=NC=C(O)NN1C=N2 | > 100 µM (inactive) | 49 µM (inactive) | 22 µM (inactive) | 53.8 µM (inactive) | 85.7 µM (inactive) | 67.5 µM (inactive) | 10 µM (inactive) | – | > 100 µM (inactive) | 29 µM (inactive) | > 100 µM (inactive) | 53.7 µM (inactive) | 43.7 µM (inactive) | 51.5 µM (inactive) | 86.9 µM (inactive) | > 100 µM (inactive) | > 100 µM (inactive) | 65.6 µM (inactive) | –
C#CCOC(=O)C(=[N+]=[N-])C(=O)CC(C)C | > 10 µM (inactive) | > 10 µM (inactive) | > 10 µM (inactive) | > 10 µM (inactive) | > 10 µM (inactive) | > 10 µM (inactive) | > 10 µM (inactive) | > 10 µM (inactive) | > 10 µM (inactive) | > 10 µM (inactive) | > 10 µM (inactive) | > 10 µM (inactive) | – | > 10 µM (inactive) | > 10 µM (inactive) | > 10 µM (inactive) | > 10 µM (inactive) | > 10 µM (inactive) | > 10 µM (inactive)
O=C1c2cccnc2-c2nccc3ccnc1c23 | 0.461 µM (active) | 1.43 µM (inactive) | 0.372 µM (active) | 1.4 µM (inactive) | 0.0865 µM (active) | 2.02 µM (inactive) | 0.548 µM (active) | 0.0456 µM (active) | 1.32 µM (inactive) | 0.413 µM (active) | 1.58 µM (inactive) | 0.281 µM (active) | 0.163 µM (active) | 0.195 µM (active) | 1.5 µM (inactive) | 1.49 µM (inactive) | 1.03 µM (active) | 0.601 µM (active) | –
COc1c(-c2nc3ccc(N4CCN(C)CC4)nc3[nH]2)cc(OC)c2c1nc(CCl)n2C | 17.9 µM (inactive) | 18.6 µM (inactive) | 14.4 µM (inactive) | 15.7 µM (inactive) | 32.2 µM (inactive) | 32.9 µM (inactive) | 18.4 µM (inactive) | 29 µM (inactive) | 19.2 µM (inactive) | 18.1 µM (inactive) | 19.9 µM (inactive) | 20.1 µM (inactive) | 10.5 µM (inactive) | 10.5 µM (inactive) | 4.99 µM (inactive) | 28.8 µM (inactive) | 28.2 µM (inactive) | 10.4 µM (inactive) | –
